Source: the METLIN SMRT retention time set (Domingo-Almenara et al. 2019)

Experiment: gradient 5% acetonitrile 3 min, to 50% in 2 min, to 85% in 15 min, held 3 min, 100 µL/min
Details: column: Zorbax Extend-C18 2.1 x 50 mm; eluents: water / acetonitrile, 0.1% formic acid
Summary of the method: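 Using water and acetonitrile that each contained 0.1% formic acid, mixtures of ~100 pure standards were separated at 100 μL/min on a Zorbax Extend-C18 column (2.1 × 50 mm, 1.8 μm). The HPLC fed a quadrupole time-of-flight mass spectrometer working in positive and negative ionization mode, with dead and dwell volumes of 40 μL and 900 μL. Data were acquired over 3 months. Retention time was read from computationally picked adduct peaks after manual inspection of each.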

SMILES	RP-LC retention time [s]
O=C(O)c1ccc(Nc2nc(-c3ccc(Cl)cc3Cl)nc3ccccc23)cc1	828
Cc1ccccc1OCC(=O)N1CC(CN(C)C)C2(CCOCC2)C1 (centres undefined)	590
CC(C)NC(=O)C1Cn2cccc2C(=O)N1C (centres undefined)	651
Cc1cc(N2CCN(C)CC2)nc2ccc(NC(=O)NCc3ccc(F)cc3)cc12	556
O=C(Nc1ccccc1F)C1CCN(S(=O)(=O)c2cc(C(=O)N3CCOCC3)cs2)CC1	742
CCC(=O)N1CCCC(c2ccnc(Nc3ccc(C)cc3)n2)C1 (centres undefined)	827
O=C(Nc1ccccc1)C1CCN(C(=O)c2ncn3c2COC(c2ccc(F)cc2)C3)CC1 (centres undefined)	791
COc1ccc(N2CC(c3noc(-c4cc(OC)c(OC)c(OC)c4)n3)CC2=O)cc1 (centres undefined)	787
Cc1noc(CNC(=O)COc2cccc3c2OC(C)(C)C3)n1	724
CCS(=O)(=O)N1CCC(c2noc(-c3ccccc3)n2)CC1	897
COC(=O)C1=CN(c2ccc(C)c(C)c2)c2ccccc2S1(=O)=O	941
CCn1cc(-c2nc(C)c(C(=O)NCc3ccccc3)s2)c2cccnc21	784
CCOc1ccc(-c2[nH]ncc2CN2CCn3c(nn(C)c3=O)C2)cc1	618
O=C(NCCC1CCN(C(=O)Nc2cc(F)ccc2F)CC1)C1CCCC1	769
NC(=O)C1CCN(c2ccc3cccc(OCc4ccccc4Cl)c3n2)CC1	593
O=C(Cn1nc2c3cc(-c4ccc(F)cc4)nn3ccn2c1=O)Nc1ccc(F)cc1Cl	959
COCCc1noc(C2Cc3ccccc3N2C(=O)NCC(C)C)n1 (centres undefined)	859
Cc1ccc(F)cc1NS(=O)(=O)c1cc2n(c1)CCN(C(C)C)C2=O	783
CCn1cc(CCN2CCC(C(=O)N3CCOCC3)CC2)c2cccnc21	566
CC(C)(C)Cn1c(N)nc2ccc(-c3[nH]c(C(C)(C)C)nc3-c3ccc(F)cc3)nc21	631
Cc1ccc(C)c(-c2nc3ccccc3c(C(=O)N3CCN(c4ncccn4)CC3)c2C)c1	903
O=C(NCCCn1ccnc1)C(=O)NCCC1=CCCCC1	571

SMILES	RP-LC retention time [s]
CC(C)N1CCN(Cc2ccc(C(=O)NCc3ccccc3C(F)(F)F)cc2)C(=O)C1=O	770
COc1ccc2c(c1)CCc1sc(NC(=O)c3ccc(OC)c(Br)c3)nc1-2	1210
COCCc1noc(-c2ccc(=O)n(CC(=O)Nc3ccccc3F)c2)n1	695
O=C(Cn1c(=O)n(C2CCCC2)c2ncccc21)Nc1ccc(Br)cc1	998
COc1ccc(-c2c(C(=O)Nc3cc(OC)ccc3OC)nc3ccccn23)cc1	1030
CCc1nc(-c2csc(S(=O)(=O)N3CCC(C(=O)N4CCc5ccccc54)CC3)c2)no1	1050
Cc1ccc(Sc2nccnc2N2CCCC(C(=O)NCc3ccc4c(c3)OCO4)C2)cc1 (centres undefined)	1060
O=C(Cc1ccc([N+](=O)[O-])cc1)NC1CC(=O)N(c2ccc(Cl)cc2)C1 (centres undefined)	760
Cc1noc(C)c1-c1ccc(S(=O)(=O)Nc2cccc(C#N)c2)cc1	874
COc1ccc(-c2noc(C3CC(=O)N(c4cc(Cl)ccc4OC)C3)n2)c(OC)c1 (centres undefined)	1010
Cc1ccc(CNC(=O)C2CC(=O)N(c3ccc4c(c3)CCN4C(=O)C3CC3)C2)cc1 (centres undefined)	756
CC(C)n1cnc2ccc(-c3noc(-c4ccccc4)n3)cc21	793
Cn1c(N2CCCC(C(=O)NCCN3CCN(c4ccccc4F)CC3)C2)cc(=O)n(C)c1=O (centres undefined)	591
COc1cccc(OCC2c3ccsc3CCN2C(=O)CN(C(=O)NC(C)C)C2CC2)c1 (centres undefined)	918
Cc1ccc2c(=O)c(C(=O)N3CCCC3)cn(CC(=O)NCc3ccc4c(c3)OCO4)c2n1	625
O=C(Cn1nc2c3cc(-c4ccc(Cl)cc4)nn3ccn2c1=O)N1CCCCC1	924
CCCCn1cnc2c(-c3ccccc3)cn(CC(=O)NCCC(C)C)c2c1=O	1050
COc1cccc(-n2c(N3CCC(C(=O)NCC(C)C)CC3)nc3ccsc3c2=O)c1	773
CCCn1cc(CCNS(=O)(=O)c2ccc(F)c(F)c2)c2cccnc21	884
CC(=O)Nc1ccc2c(c1)Sc1ncccc1C(=O)N2C(C)C	669
O=C(Nc1cccc(F)c1)C1CCCN(S(=O)(=O)c2cc(-c3noc(C4CCC4)n3)cs2)C1 (centres undefined)	1190
CCC(=O)N1CCc2c(C(=O)NC3CCCCC3)cccc21	831
